Laboratory results from patent US20120058989A1, “ANTIBACTERIAL FLUOROQUINOLONE ANALOGS” (Achaogen, Inc., priority 2008, published 2012).

Experiments:
Assay in all cases: MIC, CLSI broth microdilution
Format in all cases: cell-based
[1] = tested on: P. aeruginosa APAE001 (Fluoroquinolone-susceptible, ATCC27853)
In short: (§1)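 Test compounds were diluted two-fold at 2× strength in Mueller Hinton Broth, then combined 1:1 with saline-suspended bacteria from an overnight agar colony to reach 5×10^5 CFU/mL. Incubation followed at 35° C. for 20 hours in ambient air, per CLSI reference methods.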

[2] = tested on: P. aeruginosa APAE002 (Fluoroquinolone susceptible); settings: Table 3
In short: as §1

[3] = tested on: S. aureus ASAU001 (Fluoroquinolone-susceptible, ATCC29213)
In short: as §1

[4] = tested on: A. baumannii AABA1065 (Fluoroquinolone-susceptible)
In short: as §1

[5] = tested on: S. pneumoniae ASPN001 (Fluoroquinolone-susceptible, ATCC49619)
In short: as §1

[6] = tested on: E. coli AECO002 (Fluoroquinolone susceptible); settings: Table 3
In short: as §1

[7] = tested on: P. aeruginosa APAE054 (Fluoroquinolone-resistant)
In short: as §1

[8] = tested on: A. baumannii AABA1009 (Fluoroquinolone-resistant); settings: Table 2
In short: as §1

[9] = tested on: E. coli AECO001 (Fluoroquinolone susceptible, ATCC25922)
In short: as §1

[10] = tested on: S. aureus ASAU002 (Fluoroquinolone-susceptible, ATCC33591 (MRSA)); settings: Table 3
In short: as §1

[11] = tested on: S. aureus ASAU1031 (Fluoroquinolone-resistant)
In short: as §1

[12] = tested on: E. coli AECO086 (Fluoroquinolone-resistant); settings: Table 3
In short: as §1

[13] = tested on: S. pneumoniae ASPN1018 (Fluoroquinolone-resistant); settings: Table 3
In short: as §1

[14] = tested on: E. coli AECO066 (Fluoroquinolone-resistant)
In short: as §1

[15] = tested on: S. pneumoniae ASPN002 (Fluoroquinolone-susceptible, ATCC10813); settings: Table 3
In short: as §1

[16] = tested on: S. pneumoniae ASPN1027 (Fluoroquinolone-resistant)
In short: as §1

[17] = tested on: A. baumannii AABA1020 (Fluoroquinolone-resistant); settings: Table 3
In short: as §1

[18] = tested on: S. aureus ASAU1033 (Fluoroquinolone-resistant); settings: Table 3
In short: as §1

Compound | MIC APAE 001 ([1]; Table 2) | MIC APAE 001 ([1]; Table 3) | MIC APAE002 [2] | MIC ASAU 001 ([3]; Table 2) | MIC ASAU 001 ([3]; Table 3) | MIC AABA 1065 ([4]; Table 2) | MIC AABA 1065 ([4]; Table 3) | MIC ASPN 001 ([5]; Table 2) | MIC ASPN 001 ([5]; Table 3) | MIC AECO002 [6] | MIC APAE 054 ([7]; Table 2) | MIC APAE 054 ([7]; Table 3) | MIC AABA 1009 [8] | MIC AECO 001 ([9]; Table 2, 35° C., 20 hours) | MIC AECO 001 ([9]; Table 3) | MIC ASAU002 [10] | MIC ASAU 1031 ([11]; Table 2) | MIC ASAU 1031 ([11]; Table 3) | MIC AECO086 [12] | MIC ASPN1018 [13] | further results
NC1CC2CCCc3c(c(F)cc4c(=O)c(C(=O)O)cn(C5CC5)c34)N2C1.O=C(O)C(F)(F)F [7C/29, (7aS,9S)-9-Amino-4-cyclopropyl-12-fluoro-1-oxo-4,5,6,7,7a,8,9,10-octahydro-1H-pyrrolo quinoline-2-carboxylic acid trifluoroacetate] | C (MIC's of greater than 8.0 μg/mL = C) | D (MIC's of greater than 8.0 μg/mL = D) | D (MIC's of greater than 8.0 μg/mL = D) | B (MIC's of greater than 1.0 μg/mL to 8.0 μg/mL = B) | C (MIC's of 2.0 μg/mL to 8.0 μg/mL = C) | B (MIC's of greater than 1.0 μg/mL to 8.0 μg/mL = B) | C (MIC's of 2.0 μg/mL to 8.0 μg/mL = C) | C (MIC's of greater than 8.0 μg/mL = C) | D (MIC's of greater than 8.0 μg/mL = D) | C (MIC's of 2.0 μg/mL to 8.0 μg/mL = C) | C (MIC's of greater than 8.0 μg/mL = C) | D (MIC's of greater than 8.0 μg/mL = D) | C (MIC's of greater than 8.0 μg/mL = C) | B (MIC's of greater than 1.0 μg/mL to 8.0 μg/mL = B) | C (MIC's of 2.0 μg/mL to 8.0 μg/mL = C) | C (MIC's of 2.0 μg/mL to 8.0 μg/mL = C) | C (MIC's of greater than 8.0 μg/mL = C) | D (MIC's of greater than 8.0 μg/mL = D) | D (MIC's of greater than 8.0 μg/mL = D) | D (MIC's of greater than 8.0 μg/mL = D) | MIC AECO 066 ([14]; Table 2): C (MIC's of greater than 8.0 μg/mL = C); MIC AECO 066 ([14]; Table 3): D (MIC's of greater than 8.0 μg/mL = D); MIC ASPN002 [15]: D (MIC's of greater than 8.0 μg/mL = D); MIC ASPN 1027 ([16]; Table 2): C (MIC's of greater than 8.0 μg/mL = C); MIC ASPN 1027 ([16]; Table 3): D (MIC's of greater than 8.0 μg/mL = D); MIC AABA1020 [17]: D (MIC's of greater than 8.0 μg/mL = D); MIC ASAU1033 [18]: D (MIC's of greater than 8.0 μg/mL = D)
NC1CC2CC=Cc3c(c(F)cc4c(=O)c(C(=O)O)cn(C5CC5)c34)N2C1.O=C(O)C(F)(F)F [7C/30, (7aS,9S)-9-Amino-4-cyclopropyl-12-fluoro-1-oxo-4,7,7a,8,9,10-hexahydro-1H-pyrrolo[1′,2′:1,7]azepino-[2,3-h]quinoline-2-carboxylic acid trifluoroacetate] | C (MIC's of greater than 8.0 μg/mL = C) | D (MIC's of greater than 8.0 μg/mL = D) | D (MIC's of greater than 8.0 μg/mL = D) | B (MIC's of greater than 1.0 μg/mL to 8.0 μg/mL = B) | B (MIC's of 1.0 μg/mL to 2.0 μg/mL = B) | B (MIC's of greater than 1.0 μg/mL to 8.0 μg/mL = B) | C (MIC's of 2.0 μg/mL to 8.0 μg/mL = C) | B (MIC's of greater than 1.0 μg/mL to 8.0 μg/mL = B) | C (MIC's of 2.0 μg/mL to 8.0 μg/mL = C) | B (MIC's of 1.0 μg/mL to 2.0 μg/mL = B) | C (MIC's of greater than 8.0 μg/mL = C) | D (MIC's of greater than 8.0 μg/mL = D) | C (MIC's of greater than 8.0 μg/mL = C) | B (MIC's of greater than 1.0 μg/mL to 8.0 μg/mL = B) | B (MIC's of 1.0 μg/mL to 2.0 μg/mL = B) | B (MIC's of 1.0 μg/mL to 2.0 μg/mL = B) | C (MIC's of greater than 8.0 μg/mL = C) | D (MIC's of greater than 8.0 μg/mL = D) | D (MIC's of greater than 8.0 μg/mL = D) | C (MIC's of 2.0 μg/mL to 8.0 μg/mL = C) | MIC AECO 066 ([14]; Table 2): C (MIC's of greater than 8.0 μg/mL = C); MIC AECO 066 ([14]; Table 3): D (MIC's of greater than 8.0 μg/mL = D); MIC ASPN002 [15]: C (MIC's of 2.0 μg/mL to 8.0 μg/mL = C); MIC ASPN 1027 ([16]; Table 2): B (MIC's of greater than 1.0 μg/mL to 8.0 μg/mL = B); MIC ASPN 1027 ([16]; Table 3): C (MIC's of 2.0 μg/mL to 8.0 μg/mL = C); MIC AABA1020 [17]: D (MIC's of greater than 8.0 μg/mL = D); MIC ASAU1033 [18]: D (MIC's of greater than 8.0 μg/mL = D)
N[C@@H]1C[C@H]2CCCc3c(c(F)cc4c(=O)c(C(=O)O)cn(C5CC5)c34)N2C1.O=C(O)C(F)(F)F [7D/39, (7aR,9R)-9-Amino-4-cyclopropyl-12-fluoro-1-oxo-4,5,6,7,7a,8,9,10-octahydro-1H-pyrrolo[1′,2′:1,7]-azepino[2,3-h]quinoline-2-carboxylic acid trifluoroacetate] | B (MIC's of greater than 1.0 μg/mL to 8.0 μg/mL = B) | C (MIC's of 2.0 μg/mL to 8.0 μg/mL = C) | B (MIC's of 1.0 μg/mL to 2.0 μg/mL = B) | A (MIC's of 1.0 μg/mL or less = A) | A (MIC's of less than 1.0 = A) | A (MIC's of 1.0 μg/mL or less = A) | A (MIC's of less than 1.0 = A) | B (MIC's of greater than 1.0 μg/mL to 8.0 μg/mL = B) | B (MIC's of 1.0 μg/mL to 2.0 μg/mL = B) | A (MIC's of less than 1.0 = A) | C (MIC's of greater than 8.0 μg/mL = C) | D (MIC's of greater than 8.0 μg/mL = D) | C (MIC's of greater than 8.0 μg/mL = C) | A (MIC's of 1.0 μg/mL or less = A) | A (MIC's of less than 1.0 = A) | A (MIC's of less than 1.0 = A) | C (MIC's of greater than 8.0 μg/mL = C) | D (MIC's of greater than 8.0 μg/mL = D) | D (MIC's of greater than 8.0 μg/mL = D) | D (MIC's of greater than 8.0 μg/mL = D) | MIC AECO 066 ([14]; Table 2): C (MIC's of greater than 8.0 μg/mL = C); MIC AECO 066 ([14]; Table 3): D (MIC's of greater than 8.0 μg/mL = D); MIC ASPN002 [15]: B (MIC's of 1.0 μg/mL to 2.0 μg/mL = B); MIC ASPN 1027 ([16]; Table 2): C (MIC's of greater than 8.0 μg/mL = C); MIC ASPN 1027 ([16]; Table 3): D (MIC's of greater than 8.0 μg/mL = D); MIC AABA1020 [17]: D (MIC's of greater than 8.0 μg/mL = D); MIC ASAU1033 [18]: D (MIC's of greater than 8.0 μg/mL = D)
